Assay results reported in ChEMBL document CHEMBL4020745 (Bioorg Med Chem Lett, 2017).

Assays:
Type in all cases: cell-based
HEK293 = assay: Cytotoxicity against HEK293 cells harboring beta-galactosidase expression plasmid assessed as effect on beta-galactosidase activity; conditions: human
[1] = target: T1, Peroxisome proliferator-activated receptor gamma (Homo sapiens, UniProt P37231); assay: Transrepression activity at human PPARgamma expressed in HEK293 cells assessed as inhibition of TNFalpha induced NF-kappaB promoter activity pretreated for 4 hrs followed by TNFalpha stimulation after 3 hrs by luciferase reporter gene assay
T1 sequence (P37231 whole entry): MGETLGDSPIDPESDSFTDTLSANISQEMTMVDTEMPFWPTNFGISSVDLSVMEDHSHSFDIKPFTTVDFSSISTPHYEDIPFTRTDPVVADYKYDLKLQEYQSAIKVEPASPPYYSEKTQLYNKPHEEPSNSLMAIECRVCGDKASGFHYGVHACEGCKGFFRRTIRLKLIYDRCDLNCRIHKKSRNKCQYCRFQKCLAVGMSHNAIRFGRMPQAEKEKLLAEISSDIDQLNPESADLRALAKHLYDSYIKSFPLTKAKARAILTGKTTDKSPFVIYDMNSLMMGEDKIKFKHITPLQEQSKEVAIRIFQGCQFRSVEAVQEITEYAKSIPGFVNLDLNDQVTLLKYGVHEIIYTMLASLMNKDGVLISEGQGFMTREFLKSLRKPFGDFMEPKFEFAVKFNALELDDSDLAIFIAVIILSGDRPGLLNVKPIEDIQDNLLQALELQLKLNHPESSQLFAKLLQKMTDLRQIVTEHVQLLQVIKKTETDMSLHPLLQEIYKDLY

[2] = target: T1, Peroxisome proliferator-activated receptor gamma; assay: Transactivation activity at Gal4 fused […] human PPARgamma LBD expressed in HEK293 cells after 24 hrs by luciferase reporter gene assay
[3] = Inhibition of TNFalpha induced NF-kappaB (unknown origin) activation expressed in PPARgamma deficient HEK293 cells pretreated for 4 hrs followed by TNFalpha stimulation after 3 hrs by luciferase reporter gene assay; conditions: Homo sapiens

IC50 [1] [µM]	EC50 [2] [µM]	Structure (SMILES)	Activity (HEK293)	IC50 [3] [µM]
		CCc1ccc(CCOc2ccc(CC3SC(=O)NC3=O)cc2)nc1 (stereo unspecified) [PIOGLITAZONE]	Non-Toxic	
42	0.7	CN(CCOc1ccc(/C=C2\SC(=O)NC2=O)cc1)c1nccs1	Non-Toxic	
17	0.82	CCN(CCOc1ccc(/C=C2\SC(=O)NC2=O)cc1)c1nc2ccccc2s1	Non-Toxic	
40	1.6	CN(CCOc1ccc(/C=C2\SC(=O)NC2=O)cc1)c1ccc2ccccc2c1	Non-Toxic	
21	0.54	CCN(CCOc1ccc(CC2SC(=O)NC2=O)cc1)c1ccccn1 (stereo unspecified)	Non-Toxic	
25	0.052	CCN(CCOc1ccc(CC2SC(=O)NC2=O)cc1)c1nc2ccccc2s1 (stereo unspecified)	Non-Toxic	
15	0.36	CCN(CCOc1ccc(/C=C2\SC(=O)NC2=O)cc1)c1ccccn1	Non-Toxic	
38	3.4	CN(CCOc1ccc(/C=C2\SC(=O)NC2=O)cc1)c1nc2ccccc2[nH]1	Non-Toxic	
20	0.057	CN(CCOc1ccc(CC2SC(=O)NC2=O)cc1)c1nc2ccccc2s1 (stereo unspecified)	Non-Toxic	
20	0.53	CC(C)N(CCOc1ccc(CC2SC(=O)NC2=O)cc1)c1nc2ccccc2s1 (stereo unspecified)	Non-Toxic	
		CN(CCOc1ccc(CC2SC(=O)NC2=O)cc1)c1ccccn1 (stereo unspecified) [ROSIGLITAZONE]	Non-Toxic	
13	0.31	CN(CCOc1ccc(/C=C2\SC(=O)NC2=O)cc1)c1nc2ccccc2s1	Non-Toxic	

Structure (SMILES)	IC50 [1] [µM]	EC50 [2] [µM]	Activity (HEK293)	IC50 [3] [µM]
O=C1NC(=O)/C(=C/c2ccc(OCCNc3nc4ccccc4s3)cc2)S1	14	0.053	Non-Toxic	29
